This is an account of results in US4096263A, “1,2,3,4-Tetrahydroisoquinolines and the preparation thereof” (Fujisawa Pharmaceutical Co., Ltd., priority 1975, dated 1978).

In this test the test system is jejunum of the dog. The experiment in a line: Intestinal Motility in Dogs (balloon at the jejunum, inhibition of motility in anesthetized mongrel dogs). The format is in vivo. Here is the method: Intestinal Motility in Dogs Method: Mongrel dogs weighing 8 to 16 kg which were withheld from any food and water for 24 hours were anesthetized with a combination of urethane (1.5 g/kg) and morphine (15 mg/kg). A balloon was placed at the jejunum of the dog, compressed at a pressure of 10 cm. H2 O, and connected to a strain gauge. Changes in the motility were mainly recorded in terms of amplitude, but taking account of the number of movements. The maximum change of all the determinations, served as the calculation of the 50% inhibition dose (ED50). The time required for 80% recovery was considered as a duration of action.

Counter-ions that a name gives are not always drawn.

For orientation: ED50 means the dose that gives a 50% effect, or the effect in half of the subjects. As for `Cn1nnnc1NCC1NCCc2cc(O)c(O)cc21` (centres unmarked) [Test Compound, 1-(1-Methyl-1H-tetrazol-5-yl)aminomethyl-6,7-dihydroxy-1,2,3,4-tetrahydroisoquinoline hydrochloride trihemihydrate], the median effective dose (ED50) (Canis lupus familiaris, anesthetized mongrel dogs (urethane 1.5 g/kg and morphine 15 mg/kg), jejunal balloon at 10 cm. H2O, maximum change of motility, mainly amplitude, route not stated, read-out: ED50 (50% inhibition dose)) was 1 µg/kg. Moreover, under “time required for 80% recovery, anesthetized mongrel dogs, jejunal balloon, dose and route not stated”, the “Duration of Action” value came out at 25 min.
